This note sets out measurements from patent publication US10111929B1, “Growth hormone releasing factor analogs and uses” (EZ IP, LLC, priority 2017, dated 2018).

Holding throughout (assay type): in vivo
The subject of assay [1] is IGF-1. The experiment in a line: Human clinical trials: IGF-1 concentrations in participant blood samples. The method, then:
(§1) Two challenges were being considered at the beginning of the human clinical trial. The first challenge was to document the stand-alone efficacy of HTA-8 as a new growth hormone releasing factor. The second was to determine if HTA-8 could be combined with other common releasing factors to create an even better result. As such, two separate trials were conducted. • Trial #1/HTA-8: Ten individuals ranging in age from 30 to 69 years were given 30 ng of HTA-8 in the form of an aerosolized oral spray before bed, over a 30-32 day period. • Trial #2/HTA-8+: Fifteen individuals ranging in age from 38 to 70 years of age were given an effervescent tablet to take once daily over a 25-36 day period that contained 20 ng of HTA-8 in combination with 1200 mg each of the amino acids lysine and arginine. (Previous published experimentation has shown that the combination of lysine and arginine in the doses used in Trial #2 is an effective GH releasing factor.)
The principal hormone measured in order to establish whether there is an increase in growth hormone secretion is IGF-1. IGF-1 concentrations and total cholesterol levels were determined by collecting participant blood samples at the beginning of the studies and at their conclusion.

The nature of assay [2]: Human clinical trials: radial bone density by ultrasonographic technique. As to conditions: subjects taking HTA-8 alone (Trial #1). The method, then:
as §1
An increase in bone density decreases the chance of fracture and […]. Bone density is a particularly important issue as the body ages, regardless of sex. During the Clinical Trials, radial bone density was measured using an ultrasonographic technique.

For assay [3], the system named is total cholesterol. The experiment in a line: Human clinical trials: total cholesterol levels in participant blood samples. To be noted: majority of clinical trial participants; with or without amino acids; absence of additional measures. The method, then: as §1
The principal hormone measured in order to establish whether there is an increase in growth hormone secretion is IGF-1. IGF-1 concentrations and total cholesterol levels were determined by collecting participant blood samples at the beginning of the studies and at their conclusion. […]

The nature of assay [4]: Human clinical trials: ultrasound-based body composition analysis and body weight. As to conditions: all study participants in both clinical trials. The method, then: as §1

Consider “H-D-Ala-D-2-Nal-Trp-H is-Trp-D-Phe-Lys-N H2 [HTA-8]”, for which the maximum IGF-1 level measured in all clinical trial participants after the study period in assay [1] (Trial #1: 30 ng HTA-8 oral spray before bed, 30-32 days, person) amounted to 410 ng/mL. In addition, the “GHRF activity (IGF-1 response)” value in assay [1] (Trial #1: HTA-8 alone, oral spray) is reported as “bona fide, stand-alone GHRF”. In addition, the IGF-1 level on average, after (increased to) in assay [1] (Trial #2: effervescent tablet once daily, 20 ng HTA-8 with 1200 mg each lysine and arginine, after 25-36 day period) amounted to 202 ng/mL. In addition, the IGF-1 level on average, before (increased from) in assay [1] (Trial #2: effervescent tablet once daily, 20 ng HTA-8 with 1200 mg each lysine and arginine, beginning of study) was determined as 170 ng/mL. The “average increase in bone density” value in assay [2] is recorded as 6.8%. The “change in total cholesterol levels over the study period” value in assay [3] is on record as “clinically significant decrease”. Besides, in assay [4], the “change in adipose tissue mass” value is given as “decrease in adipose tissue mass” and the “change in lean muscle mass” value was “increase in lean muscle mass”.
